Patent publication US20030144347A1, “Method for treating autoimmune disease” (priority 2001, published 2003)

Tests used:
Format in all cases: in vivo, human
[1] = tested on: patient suffering from rheumatoid arthritis; assay: Case reports: patients suffering from rheumatoid arthritis; settings: Example 17; before Topamax
Protocol: A patient suffering from rheumatoid arthritis was administered 25 mg per day of topiramate with an increase every 10 days by 25 mg until 25 mg, 3 times per day, was achieved. The patient previously took 3 or 4 tablets per day of lortab, seven 2.5 mg tablets of methotrexate once a week, 200 mg per day of minocycline and 10 mg per day of prednisone.
An adolescent patient suffering from rheumatoid arthritis began taking 15 mg per day of topiramate for one week, which was then increased by 15 mg weekly until 45 mg per day, in three divided dosages of 15 mg each, was reached. The patient previously took 3 to 5 mg of prednisone daily.
A patient suffering from rheumatoid arthritis with a positive rheumatic factor about 3 decades earlier, at which time they also experienced polyarthritis and Renaud's phenomena, was treated with prednisone 40 mg per day for six months and was then weaned off the prednisone after one year. In the ensuing years, psoriasis developed on both elbows which was worse in the winter. They were an avid golfer and experienced painful swelling and stiffness of both wrists and hands, especially the left, and back pain and stiffness. […] They were begun on Topamax 15 mg a day which was increased weekly by 15 mg until 45 mg per day was taken in divided doses.

[2] = tested on: patient suffering from multiple sclerosis; assay: Case reports: patients suffering from multiple sclerosis treated with topiramate; settings: Example 18; patient's own attempt
Protocol: A patient suffering from multiple sclerosis was administered 15 mg per day of topiramate. The dosage was increased after 15 days to 30 mg per day. At 15 mg, the patient's involuntary stretch rigid response stopped and the patient was able to get out of bed without falling backward when their feet touched the floor for the first time in nine years.
The patient previously took trazadone 100 mg at bedtime, clonazepan 1 mg three times a day, citalapram 40 mg each morning, gabapentrin 600 mg four times a day, and synthroid 25 mcg per day for two years. They had refused steroids and interferon because of side effects.
The Topamax was increased to 15 mg at bedtime and they reported “no bad bladder accidents” and that their leg and foot cramps had disappeared. […] They were discharged on Topamax 15 mg at bedtime along with previous medications. The patient was much improved medically and emotionally.
The patient returned four weeks later walking with a cane, having worked “10 to 14 hours per day and exhausted from my move with little sleep during the past month”. They reported “insatiable itching all over my body wherever my clothes touch the skin” which […] unsuccessfully tried to treat with cetirizine. […] said […] felt “dizzy, weak, Charlie horses in arches of feet and toes, unable to stand for more than 10 minutes before starting to have gait problems, problems sleeping, having trouble mentally and urine leaking”. […] working diagnoses are Axis I Bipolar disorder, not otherwise specified Axis III multiple sclerosis. […]

[3] = tested on: patient with rapid mood swings and severe intense itching; assay: Case report: patient with rapid mood swings and severe intense itching; settings: Example 19
Protocol: A patient presented with rapid mood swings and a complaint of severe intense itching from clothing tags and some clothing, which began over twenty years ago. They were begun on gabapenten which was increased to 300 mg qid. […] Their itching was unchanged. They were begun on Topamax 12.5 mg at bedtime which was increased weekly by 12.5 mg until 50 mg.

In the case of `COc1ccc2cc([C@H](C)C(=O)O)ccc2c1` [Naproxen], the “effect on painful swelling and stiffness” value [1] is reported as “ineffective”.

For `O=C(O)COCCN1CCN(C(c2ccccc2)c2ccc(Cl)cc2)CC1` (centres unmarked) [cetirizine], the treatment of itching [2] was “unsuccessfully”.

`NCC1(CC(=O)O)CCCCC1` [gabapenten] was tested, and the mood ([3]; 300 mg qid) was “a little calmer”, the weight gained ([3]; 300 mg qid, in two weeks) was “five” and the itching ([3]; increased to 300 mg qid) was “unchanged”.
